Target: SHP2 (Homo sapiens (Human), UniProt Q06124)
Assay: SHP2 allosteric inhibition assay (DiFMUP prompt fluorescence)
Format: biochemical
Details: 0.2 nM SHP2 incubated with 0.5 μM Activating Peptide 1 or 2, 30-60 min at 25° C., surrogate substrate DiFMUP, kinetic read
Description: Without wishing to be bound by theory, SHP is allosterically activated through binding of bis-tyrosyl-phosphorylated peptides to its Src Homology 2 (SH2) domains. The latter activation step leads to the release of the auto-inhibitory interface of SHP2, which in turn renders the SHP2 protein tyrosine phosphatase (PTP) active and available for substrate recognition and reaction catalysis. The catalytic activity of SHP2 was monitored using the surrogate substrate DiFMUP in a prompt fluorescence assay format.
The phosphatase reactions were performed at room temperature in 96-well black polystyrene plate, flat bottom, non-binding surface (Corning, Cat #3650) using a final reaction volume of 100 μL and the following assay buffer conditions: 50 mM HEPES, pH 7.2, 100 mM NaCl, 0.5 mM EDTA, 0.05% P-20, 1 mM DTT.
The inhibition of SHP2 by compounds of the disclosure (concentrations varying from 0.00005-10 μM) was monitored using an assay in which 0.2 nM of SHP2 was incubated with 0.5 μM of Activating Peptide 1 (sequence: H2N-LN(pY)IDLDLV(dPEG8)LST(pY)ASINFQK-amide) or Activating Peptide 2 (sequence: H2N-LN(pY)AQLWHA(dPEG8)LTI(pY)ATIRRF-amide). […]

- IC50: 34 nM
SMILES: Cc1nc(N2CCC3(CCC[C@H]3N)CC2)c2cncn2c1-c1cccc(Cl)c1Cl [Compound 3, (1R)-8-[5-(2,3-dichlorophenyl)-6-methylimidazo[1,5-a]pyrazin-8-yl]-8-azaspiro[4.5]decan-1-amine]

Source: patent US20240199616A1, “BICYCLIC COMPOUNDS AS ALLOSTERIC SHP2 INHIBITORS” (Revolution Medicines, Inc., priority 2017, published 2024)
